This assay has as its target T1, LIN28–let-7 interaction (Homo sapiens, UniProt Q9H9Z2).
T1 construct: Purified LIN28A (residues 16–187) was incubated at a concentration of 200 nM; His-tag (cleaved yes); made in house; host or cells: Escherichia coli BL21(DE3)
T1 sequence (Q9H9Z2 16-187): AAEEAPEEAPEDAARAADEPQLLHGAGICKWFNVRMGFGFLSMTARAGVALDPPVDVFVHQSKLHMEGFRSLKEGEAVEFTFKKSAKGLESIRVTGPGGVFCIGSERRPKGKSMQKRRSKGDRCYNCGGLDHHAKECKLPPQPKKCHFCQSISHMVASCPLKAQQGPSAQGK
Description: Fluorescence polarization (FP) assay, LIN28A (residues 16–187) and FAM-labeled preE-let-7f-1. Format: binding. Particulars: text and figures; C-labels = library sample, PH-labels = in-house resynthesized; read-out: IC50 in the FP assay. The method, then: Protein expression and purification.
19 vector and overexpressed in Escherichia coli BL21(DE3). The culture was incubated at 37 °C until
the absorbance at 600 nm (OD600) reached 0.5–0.7. IPTG was added to a final concentration of
300 µM, and overnight induction was performed at 18 °C. Cells were harvested by centrifugation.
The bacterial pellet was resuspended in lysis buffer (50 mM NaH2PO4, pH 7.5, 300 mM NaCl,
0.1 mM PMSF) and lysed using a Microfluidizer (Microfluidics) . A fresh portion of 0.1 mM PMSF
and Triton X-100 (1% final concentration) were added. The lysate was cleared by ultra centrifugation
at 30000 xg and 4 °C for 1 h. The protein purification was performed using immobilized nickel
300 mM NaCl and 5 % glycerol. Gradient elution was performed with a maximum of 0.5 M imidazole.
Subsequently, the affinity tag was cleaved using His6 -TEV-protease and the protease and unspecific
binders were eliminated by a second nickel affinity chromatography. After protein concentration
LIN28A containing fractions were concentrated and applied to a High Load Superdex 75 pg 16/600
column (GE Healthcare) with gel-filtration buffer (30 mM NaH2PO4, pH 7.5, 50 mM NaCl, 5%
glycerol, 2 mM β-ME). The purified protein was concentrated and stored at -80 °C until further
Fluorescence polarization. The fluorescence polarization assay was performed in black low volume
IC50 measurements were performed with three technical
minutes with compound concentrations ranging from 0.3 nM to 100 µM in FP assay buffer (20 mM
Tris, pH 7, 100 mM NaCl, 5 mM MgCl2, 2 mM glutathione (reduced), 0.1 % NP-40). Subsequently,
FAM-labeled preE-let-7f-1 (mus musculus) ([…]-
FAM, synthesized by IDT) was added to a final concentration of 2 nM. Fluorescence polarization
was detected after incubation at room temperature using a TECAN Spark plate reader. Half maximal
inhibitory concentrations (IC50) were determined using GraphPad Prism 7. […]
(In general: Fluorescence polarisation rises when a labelled molecule tumbles more slowly, as on binding a larger partner.)

What is called IC50 is the midpoint of a concentration-inhibition curve.

In the case of `O=C(C1=C(O)C(=O)N(c2ccc(O)c(C(=O)O)c2)C1c1ccc(-c2nccs2)cc1)c1ccc(Br)cc1` (stereo not shown) [C902/PH-31], the half-maximal inhibitory concentration (IC50) is 18 µM.
